Data as given in ChEMBL document CHEMBL4840378 (J Med Chem, 2021).

Experiments:
[1] = Metabolic stability in human liver S9 fraction assessed as compound remaining measured after 1 hr; assay type: ADME, subcellular; details: read-out: Stability
[2] = AUCinf in rat at 10 mg/kg, po; assay type: ADME, organism-based; design: route oral, time infinity, dose 10 mg/kg; details: in vivo
[3] = Metabolic stability in rat liver S9 fraction assessed as compound remaining measured after 1 hr; assay type: ADME, subcellular; details: read-out: Stability
[4] = Clearance in rat at 2 mg/kg; assay type: ADME, organism-based; details: in vivo

Structure (SMILES)	remaining at 1 h [1]	AUC(0-inf) [2]	remaining at 1 h [3]	clearance [4]
C[C@@H]1CC[C@@H](Nc2nc(NC(C)(C)C)ncc2C(N)=O)C[C@H]1O [CC-90001]		35.5 µM·h		11 mL/min/kg
CO[C@H]1CC[C@H](Nc2ncc(C(N)=O)c(N[C@@H]3CCCC(F)(F)C3)n2)CC1 (mixture of isomers)	61%		1%	
CO[C@H]1CCC[C@@H](Nc2nc(N[C@H]3CC[C@H](OC)CC3)ncc2C(N)=O)C1	91%		47%	

Results, then the compound that gave them:

remaining at 1 h [1]	AUC(0-inf) [2]	remaining at 1 h [3]	clearance [4]	Structure (SMILES)
96%	2.25 µM·h	75%		NC(=O)c1cnc(NC23CC(C2)C3)nc1N[C@@H]1CCC[C@H](O)C1
77%		1%		NC(=O)c1cnc(NC2CCCCC2)nc1N[C@@H]1CCC[C@H](O)C1
93%	10.8 µM·h	98%	78 mL/min/kg	CC(C)(C)Nc1ncc(C(N)=O)c(N[C@@H]2CCC[C@H](O)C2)n1
